Data on 1 molecule can be found in paper PMC5988308, “Rhodanine derivatives as potent anti-HIV and anti-HSV microbicides” (PLoS ONE, 2018).

Usually EC50 stands for the concentration at which the effect is half-maximal.

Read-outs that look alike come from different tables or passages of the source.

The subject of data set [1] is NL4.3 HIV strain. Kind of data set: Antiviral activity in microbicide gel formulation, transwell experiment, TZM-bl cells. In kind it is cell-based, HIV-1. Particulars: Human immunodeficiency virus 1, gel at 50%. As for the experimental part: All the semi-solid formulations were prepared adding at the pre-gel solution reported above hydroxyethyl cellulose (HEC) (1.8% w/v). In all samples, 0.2% v/v propionic acid was added to aqueous solution in order to preserve form bacteria and mold contamination. HEC was dispersed in the pre-gel solution at 25°C under magnetic stirring, overnight.
Antiviral activity of compound 2 on NL4.3 HIV strain was evaluated also in a gel formulation. To reproduce more physiological conditions, TZM-bl cells were seeded into transwells and the gel was applied onto the cell monolayer at 50% fixed concentration with serial drug dilutions as previously described. Briefly, 4x10^4 TZM-bl cells were plated into each transwell apical chamber of a 24-well plate (pore size 3μm and diameter 6,5 mm, Corning) containing medium in the bottom plate and cultured overnight. For efficacy testing, 60 TCID50 of virus was added to each apical well in the presence of 100 μL of compound 2 gel, tenofovir gel or blank gel at the final drug concentrations of 25μM, 10 μM and 5 μM. Inhibition of infection was determined as previously based on deviations from blank gel.

Data set [2] can be described thus: Storage stability and rheological characterization of gel. The format is physicochemical. The following applies: 50 μM, 25°C in the dark. As for the experimental part:
All the semi-solid formulations were prepared adding at the pre-gel solution reported above hydroxyethyl cellulose (HEC) (1.8% w/v). In all samples, 0.2% v/v propionic acid was added to aqueous solution in order to preserve form bacteria and mold contamination. HEC was dispersed in the pre-gel solution at 25°C under magnetic stirring, overnight. Gel containing compound 2 was stored at 25°C in the dark. At predetermined data points, the formulations were visually inspected to evidence aggregate formations and the pH was measured. Rheological evaluations were performed using a rotational viscometer (Bohlin Model Visco 88, Bohlin Instruments, UK). Appropriate measuring spindles (C14 DIN) were used during viscosity measurements. Samples were loaded into the cup and allowed to equilibrate for 10 min at desired temperature (25 ± 0.5°C) and apparent viscosity (mPa s) was determined using a shear rate of 552 s^-1 over a 1 month period.

Data set [3] relates to HSV-2 acyclovir resistant. Kind of data set: HSV-2 acyclovir resistant plaque reduction assay on Vero cells. In kind it is cell-based. Particulars: Human alphaherpesvirus 2, Vero, read-out: HSV-2 acyclovir resistant EC50. As for the experimental part:
(§1) Clinical isolates of HSV-1 and HSV-2 were kindly provided by Prof. M. Pistello, University of Pisa, Italy. HSV-1 and HSV-2 strains were propagated and titrated by plaque assay on Vero cells. A HSV-2 strain with phenotypic resistance to acyclovir was generated by serial passage in the presence of increasing concentrations of acyclovir, as previously described.
The effect of the rhodanine derivatives on HSV infection was evaluated by plaque reduction assay. Vero cells were pre-plated 24 h in advance in 24-well plates at a density of […]. Increasing concentrations of compounds were mixed with HSV-2 (MOI 0.001 pfu/cell) or HSV-2 acyclovir resistant (MOI 0.001) or HSV-1 (MOI 0.0005) or and incubated for 1 hour at 37°C. The mixtures were subsequently added to the cells, which were then incubated at 37°C for 2 h. […] After further incubation at 37°C for 24 h (HSV-2 and HSV-2 R Acy) or 48 h (HSV-1), cells were fixed and stained with 0.1% crystal violet in 20% ethanol and viral plaques counted. […] The selectivity index (SI) was calculated by dividing the CC50 by the EC50 value.
All results are presented as the mean values from three independent experiments. The EC50 values for inhibition curves were calculated by regression analysis using the software GraphPad Prism (GraphPad Software, San Diego, California, U.S.A.) by fitting a variable slope-sigmoidal dose–response curve. […]

Data set [4] deals with HSV-1. Kind of data set: HSV-1 plaque reduction assay on Vero cells. In kind it is cell-based. Particulars: read-out: HSV-1 EC50, Vero cells. The protocol:
as §1
The effect of the rhodanine derivatives on HSV infection was evaluated by plaque reduction assay. Vero cells were pre-plated 24 h in advance in 24-well plates at a density of […]. Increasing concentrations of compounds were mixed with HSV-2 (MOI 0.001 pfu/cell) or HSV-2 acyclovir resistant (MOI 0.001) or HSV-1 (MOI 0.0005) or and incubated for 1 hour at 37°C. The mixtures were subsequently added to the cells, which were then incubated at 37°C for 2 h. The virus inoculum was then removed and the cells washed and overlaid with a medium containing 1.2% methylcellulose (Sigma). After further incubation at 37°C for 24 h (HSV-2 and HSV-2 R Acy) or 48 h (HSV-1), cells were fixed and stained with 0.1% crystal violet in 20% ethanol and viral plaques counted. The effective concentration producing 50% reduction (EC50) and 90% reduction (EC90) in plaque formation was determined using Prism software by comparing drug-treated with wells treated with medium and solvent. The selectivity index (SI) was calculated by dividing the CC50 by the EC50 value.
All results are presented as the mean values from three independent experiments. The EC50 values for inhibition curves were calculated by regression analysis using the software GraphPad Prism (GraphPad Software, San Diego, California, U.S.A.) by fitting a variable slope-sigmoidal dose–response curve. Acyclovir was purchased from Sigma Aldrich (Milan, Italy).
On the technique in general: In a plaque reduction assay, fewer plaques than in the control indicate reduced infectivity or spread.

The subject of data set [5] is recombinant HIV-1 integrase Y143R. Kind of data set: Antiviral activity on human CD4+ T lymphocytes, integrase mutant Y143R. The format is cell-based. Particulars: Human immunodeficiency virus 1, read-out: Y143R EC50.
Data set [6] has as its system HIV-1 NL 4.3 WT. As to the kind of experiment: Antiviral activity on human CD4+ T lymphocytes, NL4.3 WT. The format is cell-based. Particulars: Human immunodeficiency virus 1; human CD4+ T lymphocytes; read-out: NL 4.3 WT EC50. As for the experimental part: (§2) The antiviral activity and cytotoxicity of compounds 2, 9e and 9f was tested also on freshly purified human CD4^+ T lymphocytes obtained from healthy blood donors (informed consent available) as described previously on HIV laboratory strain NL4.3 and AD8 [33, 34].

Data set [7] relates to HIV-1 AD8 WT. As to the kind of experiment: Antiviral activity on human CD4+ T lymphocytes, AD8 WT. In kind it is cell-based. The following applies: Human immunodeficiency virus 1; human CD4+ T lymphocytes; read-out: AD8 WT EC50. As for the experimental part:
as §2

Data set [8] concerns recombinant HIV-1 integrase Q148H, G140S. Kind of data set: Antiviral activity on human CD4+ T lymphocytes, integrase mutant Q148H, G140S. The format is cell-based. The following applies: Human immunodeficiency virus 1, read-out: Q148H, G140S EC50.
Data set [9] has as its system HIV-1 AD8. As to the kind of experiment: Inhibition of antiviral activity by purified bovine serum albumin (TZM-bl, AD8). The format is cell-based. The protocol: To confirm the binding of compound 2 to serum albumin, infection was performed in presence of different concentrations of purified bovine serum albumin (BSA, Sigma Aldrich) starting from the concentration that is usually present in FBS serum (35 mg/mL, 1X) and increasing to a five-fold concentration (175 mg/mL) up to a ten-fold concentration (350 mg/mL). […] After one hour, the mixture was added to 40.000 TZM-bl cells/well plated in DMEM supplemented with 50 μg/mL penicillin, 50 μg/mL streptomycin, 30 μg/mL DEAE-dextran and 10% FBS in a 96-well plate. After two days the infection was evaluated through a CPRG assay.

As to `O=C(O)c1ccc(-c2ccc(/C=C3\SC(=S)N(Cc4ccc(Cl)cc4)C3=O)o2)cc1O` [Compound 2], the concentration for a half-maximal effect (EC50) in [1] is 13000 nM; in data set [3] it was 10.7 ± 6.34 nM; in [4] (Human alphaherpesvirus 1, Vero), 132 nM; in data set [4] it was 131 ± 59.9 nM; in data set [5] it was 8 ± 3 nM; in data set [6], 13 ± 3 nM. Besides, the EC50 in data set [7] amounted to 11 ± 1 nM; in [8], 9 ± 2 nM. Besides, the “recovery after 1 month of storage” value in data set [2] is recorded as “about 100%”. For the same molecule, the “reduction of antiviral activity with physiological BSA, compound at 400 nM” value in [9] (1X = 35 mg/mL BSA, 400 nM) is recorded as “about 50%”. Besides, the “loss of antiviral activity with physiological BSA, compound at 2 μM” value in data set [9] (1X = 35 mg/mL BSA, 2 μM) was 20%. Further, the “antiviral activity with BSA concentration increased 5 to 10 folds” value in data set [9] (175-350 mg/mL BSA, 400 nM) was “complete loss of activity”.
